“And” between values parts separate entries of the source, which are not always exact repeats. Equal values may be shown once.
How the values were obtained:
[1] = Clinical Pharmacology Study Fed/Fasted cohort: food effect on single-dose PK; assay type: in vivo, human; conditions: 200 mg single dose
Text: Study Design: The Clinical Pharmacology Study consists of 3 independent cohorts: 1) an open-label, randomized, 2-period, crossover Fed/Fasted cohort to determine food effects; 2) an open-label, 2-period, fixed sequence PPI cohort to evaluate interactions with esomeprazole; and 3) an open-label, randomized, 2 period, crossover rBA cohort to evaluate 2 tablet formulations.
Compound A should be taken with food.

CK1α = CK1α (Homo sapiens, UniProt P48729); test: Cereblon neomorphic substrate degradation, CK1α; assay type: cell-based; conditions: in vitro
Text: These drugs bind to cereblon and promote the degradation of novel (neomorphic) substrates.

[2] = Single-dose oral TK and tolerability study in beagle dogs; assay type: in vivo; conditions: dog
Method: A lead-in single-dose TK and tolerability study conducted prior to the telemetry study indicated approximately dose-proportional increase in exposure between 200 and 400 mg/kg in the dog.

[3] = Plasma protein binding, monkey; assay type: in vitro ADME; conditions: read-out: free fraction
[4] = Plasma protein binding, human; assay type: in vitro ADME; conditions: read-out: free fraction
[5] = test system: cultured human peripheral blood lymphocytes; test: In vitro micronucleus assay; assay type: cell-based; conditions: 3+21 hours ± S9; 24+24 hours −S9
Method: Compound A was tested in a GLP-compliant in vitro micronucleus assay.

[6] = Biopharmaceutics Classification System; assay type: physicochemical; conditions: low solubility/low permeability
[7] = female, human, in vivo
Text: The severity of adverse events was graded according to the National Cancer Institute Common Terminology Criteria for Adverse Events (NCI CTCAE) version 5.0.

[8] = FIH Study Part B dose expansion (VERITAC): adverse events
Method: Study Design: In the FIH Study: Part A is a Phase I monotherapy dose escalation, and Part B is a Phase 2 monotherapy expansion at 2 RP2D doses (200 mg QD, 500 mg QD).
TEAEs and TRAEs from the clinical study database were coded to system organ class and preferred term using MedDRA version 22.0 and SAEs from the centralized safety database were coded using MedDRA version 25.0. The severity of adverse events was graded according to the NCI CTCAE version 5.0.

[9] = Phase 2 study of Compound A or anastrozole in early ER+/HER2− breast cancer: adverse events
Text: The study will also evaluate safety, tolerability, and clinical and pathological response after approximately 5.5 months of treatment.

[10] = 200 mg QD n=35, Nov. 1, 2022, grade 1/2
[11] = TEAE, Treatment Related per title, Compound A 200 mg N = 23, Anastrozole 1 mg N = 13

Sequence of CK1α (Q96SW2 whole entry partner): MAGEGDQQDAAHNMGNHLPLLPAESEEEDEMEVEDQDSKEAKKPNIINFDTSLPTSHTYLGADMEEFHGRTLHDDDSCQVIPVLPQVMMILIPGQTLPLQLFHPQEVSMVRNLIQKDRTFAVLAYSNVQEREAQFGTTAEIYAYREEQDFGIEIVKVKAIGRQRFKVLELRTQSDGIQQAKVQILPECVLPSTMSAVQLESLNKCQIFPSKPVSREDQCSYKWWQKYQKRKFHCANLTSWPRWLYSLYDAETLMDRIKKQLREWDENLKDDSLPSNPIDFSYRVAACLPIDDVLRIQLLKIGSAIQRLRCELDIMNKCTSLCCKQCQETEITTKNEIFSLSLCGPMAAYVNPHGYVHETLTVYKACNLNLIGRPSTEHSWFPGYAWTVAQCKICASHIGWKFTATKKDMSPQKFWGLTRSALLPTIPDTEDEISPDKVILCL
Sequence of CK1α (Q16531 whole entry partner): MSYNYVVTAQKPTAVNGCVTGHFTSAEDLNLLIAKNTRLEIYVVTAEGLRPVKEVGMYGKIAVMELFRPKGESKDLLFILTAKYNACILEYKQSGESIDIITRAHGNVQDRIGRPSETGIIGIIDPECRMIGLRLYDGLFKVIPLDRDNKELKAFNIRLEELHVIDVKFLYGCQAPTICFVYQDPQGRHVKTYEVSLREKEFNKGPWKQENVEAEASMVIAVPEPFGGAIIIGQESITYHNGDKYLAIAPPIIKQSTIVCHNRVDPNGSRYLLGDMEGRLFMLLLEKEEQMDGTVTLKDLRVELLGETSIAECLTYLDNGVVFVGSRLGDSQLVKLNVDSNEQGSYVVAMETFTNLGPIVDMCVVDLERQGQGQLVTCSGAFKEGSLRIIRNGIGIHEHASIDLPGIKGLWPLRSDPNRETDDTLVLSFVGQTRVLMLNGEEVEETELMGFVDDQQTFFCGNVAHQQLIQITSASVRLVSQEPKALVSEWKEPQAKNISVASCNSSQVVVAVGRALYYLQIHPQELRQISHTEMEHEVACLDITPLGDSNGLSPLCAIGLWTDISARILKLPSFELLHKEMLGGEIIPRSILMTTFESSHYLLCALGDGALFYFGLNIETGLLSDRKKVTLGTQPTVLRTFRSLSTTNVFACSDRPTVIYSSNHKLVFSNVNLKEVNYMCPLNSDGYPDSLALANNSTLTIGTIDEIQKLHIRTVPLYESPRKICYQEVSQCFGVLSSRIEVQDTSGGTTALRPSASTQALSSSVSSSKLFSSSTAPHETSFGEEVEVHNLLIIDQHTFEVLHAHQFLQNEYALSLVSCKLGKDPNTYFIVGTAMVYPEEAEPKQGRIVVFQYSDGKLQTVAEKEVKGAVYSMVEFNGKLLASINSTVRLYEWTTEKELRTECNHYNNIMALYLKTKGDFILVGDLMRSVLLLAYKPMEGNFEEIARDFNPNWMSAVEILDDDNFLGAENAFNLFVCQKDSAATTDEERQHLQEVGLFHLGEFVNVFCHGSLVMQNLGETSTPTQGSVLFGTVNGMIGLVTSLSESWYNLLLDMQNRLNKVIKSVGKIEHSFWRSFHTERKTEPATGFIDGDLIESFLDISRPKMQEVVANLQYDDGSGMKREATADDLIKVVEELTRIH
Sequence of CK1α (P48729 whole entry): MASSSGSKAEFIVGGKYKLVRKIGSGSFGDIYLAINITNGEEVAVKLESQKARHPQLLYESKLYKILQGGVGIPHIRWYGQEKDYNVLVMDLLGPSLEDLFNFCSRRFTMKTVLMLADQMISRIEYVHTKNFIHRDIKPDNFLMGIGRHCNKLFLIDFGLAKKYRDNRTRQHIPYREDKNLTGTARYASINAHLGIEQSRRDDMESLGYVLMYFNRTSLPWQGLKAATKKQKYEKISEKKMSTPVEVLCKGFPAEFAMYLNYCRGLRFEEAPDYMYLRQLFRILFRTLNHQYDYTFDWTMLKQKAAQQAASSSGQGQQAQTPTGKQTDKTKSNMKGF

SMILES: O=C1CC[C@H](N2Cc3cc(N4CCN(CC5CCN(c6ccc([C@@H]7c8ccc(O)cc8CC[C@@H]7c7ccccc7)cc6)CC5)CC4)ccc3C2=O)C(=O)N1 [Compound A, (S)-3-(5-(4-((1-(4-((1R,2S)-6-hydroxy-2-phenyl-1,2,3,4-tetrahydronaphthalen-1-yl)phenyl)piperidin-4-yl)methyl)piperazin-1-yl)-1-oxoisoindolin-2-yl)piperidine-2,6-dione]
- increase of AUCinf by high-fat meal [1]: 125%
- increase of AUCinf by high-fat meal vs fasted [1]: 2.2 fold and 2 fold
- increase of Cmax by high-fat meal [1]: 184%
- increase of Cmax by high-fat meal vs fasted [1]: 2.8 fold and 3 fold
- degradation of CK1α (CK1α): did not degrade
- Cmax ([2]; both sexes, beagle, in vivo, 400 mg/kg single oral, sexes combined): 25000 ng/mL
- AUC ([2]; both sexes, beagle, in vivo, 400 mg/kg single oral, sexes combined, read-out: mean AUC24): 349 µg·h/mL
- tolerability ([2]; 200 or 400 mg/kg single oral, fecal changes, emesis at 400): tolerated
- fraction unbound at 1 μM [3]: 0.04
- fraction unbound at 1 μM [4]: 0.124
- frequency of micronuclei [5]: did not induce biologically relevant increases
- Biopharmaceutics Classification System class [6]: Class IV
- TEAE COVID-19 [7]: 11.8%
- TRAE Arthralgia [8, 10]: 11%
- TRAE Fatigue [8, 10]: 40%
- TRAE Nausea [8, 10]: 14%
- TRAE hot flush [8, 10]: 17%
- TRAE increased aspartate aminotransferase [8, 10]: 11%
- Grade 5 TRAEs ([8]; 6 Jun 2023): no Grade 5 TRAEs
- Grade 1 TEAEs ([8]; 6 Jun 2023, N=71): 22.5%
- Grade 1 TRAEs ([8]; 6 Jun 2023, N=71): 29.6%
- Grade 2 TEAEs ([8]; 6 Jun 2023, N=71): 33.8%
- Grade 2 TRAEs ([8]; 6 Jun 2023, N=71): 38.0%
- Grade 3 TEAEs ([8]; 6 Jun 2023, N=71): 28.2%
- Grade 3 TRAE electrocardiogram QT prolonged ([8]; 6 Jun 2023, N=71): 1.4%
- Grade 4 TEAEs ([8]; 6 Jun 2023, N=71): 2.8%
- Grade 5 TEAE ([8]; 6 Jun 2023, N=71): 1.4%
- TEAE Arthralgia ([8]; 6 Jun 2023, N=71): 21.1%
- TEAE Aspartate aminotransferase increased ([8]; 6 Jun 2023, N=71): 12.7%
- TEAE Back pain ([8]; 6 Jun 2023, N=71): 11.3%
- TEAE Constipation ([8]; 6 Jun 2023, N=71): 19.7%
- TEAE Decreased appetite ([8]; 6 Jun 2023, N=71): 15.5%
- TEAE Headache ([8]; 6 Jun 2023, N=71): 11.3%
- TEAE Nausea ([8]; 6 Jun 2023, N=71): 26.8%
- TEAE anemia ([8]; 6 Jun 2023, N=71): 14.1%
- TEAE hot flush ([8]; 6 Jun 2023, N=71): 14.1%
- TRAE Arthralgia ([8]; 6 Jun 2023, N=71): 14.1%
- TRAE Fatigue ([8]; 6 Jun 2023, N=71): 36.6%
- TRAE Nausea ([8]; 6 Jun 2023, N=71): 21.1%
- TRAE hot flush ([8]; 6 Jun 2023, N=71): 12.7%
- patients with TRAEs of Grade ≥3 ([8]; 6 Jun 2023, N=71): 7.0%
- patients with at least 1 TEAE ([8]; 6 Jun 2023, N=71): 88.7%
- patients with at least 1 TRAE ([8]; 6 Jun 2023, N=71): 76.1%
- SAEs ([8]; 6 Jun 2023, N=71, 10): 14.1%
- deaths ([8]; 14 of 71 participants): 19.7%
- SAE Seizure, Grade ([8]; Patient 1, onset day 263, Not related): 3
- SAE Intestinal obstruction, Grade ([8]; Patient 2, onset day 85, Not related): 3
- SAE Muscular weakness, Grade ([8]; Patient 3, onset day 165, Not related): 3
- SAE Back pain, Grade ([8]; Patient 3, onset day 196): 2
- SAE Hepatic hemorrhage, Grade ([8]; Patient 4, onset day 55, Not related): 4
- SAE Hypercalcemia, Grade ([8]; Patient 5, onset day 53, Not related): 4
- SAE Anemia, Grade ([8]; Patient 6, Not related): 3
- SAE Cholangitis, Grade ([8]; Patient 6, Not related): 3
- SAE Thrombocytopenia, Grade ([8]; Patient 6, Possibly related, SUSAR): 3
- SAE Hyperbilirubinemia, Grade ([8]; Patient 6, onset day 15, Possibly related, SUSAR): 4
- SAE Acute respiratory failure, Grade ([8]; Patient 6, onset day 19, Unlikely related): 5
- SAE Upper gastrointestinal hemorrhage, Grade ([8]; Patient 7, onset day 36, Not related): 3
- SAE Spinal cord compression, Grade ([8]; Patient 8, onset day 22, Not related): 3
- SAE Pyrexia, Grade ([8]; Patient 9, onset day 27, Not related): 3
- Grade 5 TRAEs ([8]; cut-off 6 Jun 2022): no Grade 5 TRAEs
- patients reporting SAEs ([8]; cut-off 6 Jun 2022): 9 of 71 patients
- total SAEs ([8]; cut-off 6 Jun 2022): 14 SAEs
- Grade 1 TEAEs ([8]; cut-off 6 Jun 2022, N=71): 29.6%
- Grade 1 TRAEs ([8]; cut-off 6 Jun 2022, N=71): 33.8%
- Grade 2 TEAEs ([8]; cut-off 6 Jun 2022, N=71): 35.2%
- Grade 2 TRAEs ([8]; cut-off 6 Jun 2022, N=71): 31.0%
- Grade 3 TEAE of anemia ([8]; cut-off 6 Jun 2022, N=71): 2 patients
- Grade 3 TEAEs ([8]; cut-off 6 Jun 2022, N=71): 18.3%
- Grade 4 TEAEs ([8]; cut-off 6 Jun 2022, N=71): 2.8%
- Grade 4 TRAE of hyperbilirubinemia ([8]; cut-off 6 Jun 2022, N=71): 1
- Grade 5 TEAE ([8]; cut-off 6 Jun 2022, N=71): 1.4%
- TEAEs of Grade ≥3 ([8]; cut-off 6 Jun 2022, N=71): 22.5%
- patients with TRAEs of Grade ≥3 ([8]; cut-off 6 Jun 2022, N=71): 7.0%
- patients with at least 1 TEAE ([8]; cut-off 6 Jun 2022, N=71): 87.3%
- patients with at least 1 TRAE ([8]; cut-off 6 Jun 2022, N=71): 71.8%
- TEAE leading to discontinuation ([8]; four of 71 patients): 5.6%
- participants on Compound A with a treatment-related AE ([9]; 200 mg, seven participants, 6 Jun 2023): 19.4%
- Anemia [9, 11]: 0 n (%)
- Arthralgia [9, 11]: 0 n (%)
- Asphyxia [9, 11]: 1 (4.3) n (%)
- Asthenia [9, 11]: 2 (8.7) n (%)
- Blood and lymphatic system disorders [9, 11]: 1 (4.3) n (%)
- Blood uric acid increased [9, 11]: 1 (4.3) n (%)
- Breast pain [9, 11]: 1 (4.3) n (%)
- Cardiac disorders [9, 11]: 1 (4.3) n (%)
- Constipation [9, 11]: 2 (8.7) n (%)
- Diarrhea [9, 11]: 1 (4.3) n (%)
- Dyspepsia [9, 11]: 0 n (%)
- Fatigue [9, 11]: 1 (4.3) n (%)
- Gastrointestinal disorders [9, 11]: 4 (17.4) n (%)
- General disorders and administration site conditions [9, 11]: 4 (17.4) n (%)
- Hematocrit decreased [9, 11]: 0 n (%)
- Heparin-induced thrombocytopenia [9, 11]: 1 (4.3) n (%)
- Hepatobiliary disorders [9, 11]: 3 (13.0) n (%)
- Hot flush [9, 11]: 3 (13.0) n (%)
- Hyperbilirubinemia [9, 11]: 2 (8.7) n (%)
- Hypercalcemia [9, 11]: 1 (4.3) n (%)
- Hyperglycemia [9, 11]: 2 (8.7) n (%)
- Hypernatremia [9, 11]: 1 (4.3) n (%)
- Hypertransaminasemia [9, 11]: 1 (4.3) n (%)
- Hypokalemia [9, 11]: 1 (4.3) n (%)
- Hyponatremia [9, 11]: 1 (4.3) n (%)
- Injury, poisoning and procedural complications [9, 11]: 1 (4.3) n (%)
- Insomnia [9, 11]: 1 (4.3) n (%)
- Investigations [9, 11]: 1 (4.3) n (%)
- Lymphopenia [9, 11]: 0 n (%)
- Metabolism and nutrition disorders [9, 11]: 2 (8.7) n (%)
- Musculoskeletal and connective tissue disorders [9, 11]: 0 n (%)
- Myalgia [9, 11]: 0 n (%)
- Nervous system disorders [9, 11]: 2 (8.7) n (%)
- Odynophagia [9, 11]: 1 (4.3) n (%)
- Procedural pain [9, 11]: 1 (4.3) n (%)
- Pruritus [9, 11]: 1 (4.3) n (%)
- Psychiatric disorders [9, 11]: 2 (8.7) n (%)
- Pyrexia [9, 11]: 1 (4.3) n (%)
- Reproductive system and breast disorders [9, 11]: 1 (4.3) n (%)
- Respiratory, thoracic and mediastinal disorders [9, 11]: 1 (4.3) n (%)
- Sinus bradycardia [9, 11]: 1 (4.3) n (%)
- Skin and subcutaneous tissue disorders [9, 11]: 1 (4.3) n (%)
- Somnolence [9, 11]: 2 (8.7) n (%)
- Stomatitis [9, 11]: 1 (4.3) n (%)
- Tension [9, 11]: 1 (4.3) n (%)
- Vascular disorders [9, 11]: 3 (13.0) n (%)
- With Any Adverse Event [9, 11]: 11 (47.8) n (%)

Source: patent US20260069588A1, “VEPDEGESTRANT FOR USE IN TREATING CANCER” (Arvinas Operation, Inc., priority 2022, published 2026)
